Values of other authors in patent publication US20200018753A1, “NON-INVASIVE BIOMARKER TO IDENTIFY SUBJECT AT RISK OF PRETERM DELIVERY” (NYU Winthrop Hospital, priority 2012, published 2020).

System: Prostaglandin D2 formation
Conditions: IL-1β-stimulated SK-N-SH neuronal cells; presumably by inhibiting cyclooxygenase (COX), especially COX-2

In the case of `Oc1ccc(C=Cc2cc(O)cc(O)c2)cc1` [Resveratrol], the “formation of Prostaglandin D2” value is given as “reduce formation of Prostaglandin D2”.
